Tests used:
Format in all cases: cell-based
DU145 cells = assay: PACE4 exon 25 splicing index (PACE4-altCT/PACE4-FL mRNA) by qPCR; details: DU145, treated for 72 h
Protocol: (§1) For actinomycin-D (Sigma Aldrich) or cycloheximide (Sigma Aldrich) treatments, compounds were first dissolved in DMSO, and diluted to a final concentration of 5 μg/mL and 40 μg/mL in the culture medium respectively. Actinomycin-D treatment never exceeded 8 h, which is the time-frame prior to early apoptosis induction. For treatments wit 5-aza-2′-deoxy-cytidine (Sigma Aldrich), compound was first dissolved in DMSO and further diluted prior to addition to cell culture medium, which was changed every day and replaced with fresh one containing the compound for a total exposure of 72 h. […]
(§2) 1 μg RNA was DNase I-treated (Invitrogen), reverse-transcribed using Superscript II reverse transcriptase (Invitrogen), and RNase H-treated (Ambion, Austin, Tex.) before quantitative PCR performed using a Stratagene Mx3005P instrument. Relative expression levels were calculated using β-actin as a reference gene with the formula (1+amplification efficiency)^−(CT). […]

LNCaP cells = assay: as above; details: treated for 72 h
Protocol: as §1, §2

[1] = test system: CpG dinucleotides of interest in PCSK6 gene; assay: CpG methylation status analysis by pyrosequencing; details: DU145 and LNCaP cells, 72 h, refreshed every 24 h
Excerpt: FIG. 5 illustrates decitabine (5-aza-dC) efficiency at hypomethylating CpG dinucleotides of interest in PCSK6 gene, showing in (A) schematic representation of the 3′ extremity of PCSK6 gene, putting emphasis on the coding and non-coding region between exon 24, exon 25 and exon 25 alt, wherein ChiP-Seq enriched regions as viewed in UCSC genome browser ChiP-Seq are represented as ovals, each CpG nucleotide analyzed is highlighted, and the inversion of 5′ and 3′ ends is shown for reading purposes; (B) DU145 and LNCaP cells (C) were treated with decitabine at the indicated concentrations for 72 h (medium and decitabine being refreshed every 24 h) and DNA was extracted and used for CpG methylation status analysis using pyrosequencing.
DNA was purified from 14 pairs of tumoral and non-tumoral prostate biopsies and from DU145 and LNCaP cells treated with 5axa-dC using DNeasy Blood & Tissue Kit (Qiagen, #69504). Concentration, yield and purity of gDNA samples were measured using spectrometry. All samples provided good gDNA yield and quality (A260/A280 ratio between 1.7 and 2.0). Gold standard pyrosequencing technology was used to determine base-specific cytosine methylation levels located upstream of guanines (sequence called CpG dinucleotides). […] Overall, nine potentially methylated cytosines (in a CpG dinucleotides context) were analyzed at the PCSK6 gene locus.

[2] = test system: CTCF binding to PCSK6 alternative terminal exon regions; assay: Chromatin immunoprecipitation with anti-CTCF antibody; details: DU145 and LNCaP cells treated for 72 h
Protocol: Cells were cultured in 150 mm culture dishes and submitted to crosslinking through the addition of formaldehyde to a final concentration of 1.1% for 10 min at room temperature followed by a quenching step with 125 mM glycine for another 5 min. Cells were washed twice with ice-cold PBS, collected using a cell scraper and frozen in liquid nitrogen and stored at −80° C. until analyses. Cell pellets were resuspended in HEPES 10 mM pH 6.5; 0.5 mM EDTA, 0.25% Triton-X-100 and centrifugated at 4,000 rpm at 4° C. for 5 min. Pellet was further lysed by adding 200 μL of Tris 50 mM pH 8.1; 10 mM EDTA, 1% SDS and passing 3 times through a 28 G syringe. Cell preparations were incubated 1 h at 4° C. with constant agitation and nuclei were pelleted by a centrifugation at 5,000 rpm. […] DNA fragmentation was routinely assessed by agarose gel electrophoresis using 10 μL of the fragmented DNA solution (beforehand treated with RNase A 10 μg/mL for 10 min). For each IP, 350 μg of DNA were used (based on concentration determined using the OD260 nm) and 5% of the corresponding volumes were kept aside as Input DNA for quantitation. […] 3 μL of the purified DNA were further used for qPCR analyses and quantitation was established using the 1% input as a standard.

PACE4-FL = biological target: T1, PACE4-FL (Homo sapiens, UniProt P29122); assay: PACE4 secretion assay, displacement by heparin; details: increasing doses
T1 construct: V5 (C); His (C); expressed in transfected cells
T1 sequence (P29122 150-969): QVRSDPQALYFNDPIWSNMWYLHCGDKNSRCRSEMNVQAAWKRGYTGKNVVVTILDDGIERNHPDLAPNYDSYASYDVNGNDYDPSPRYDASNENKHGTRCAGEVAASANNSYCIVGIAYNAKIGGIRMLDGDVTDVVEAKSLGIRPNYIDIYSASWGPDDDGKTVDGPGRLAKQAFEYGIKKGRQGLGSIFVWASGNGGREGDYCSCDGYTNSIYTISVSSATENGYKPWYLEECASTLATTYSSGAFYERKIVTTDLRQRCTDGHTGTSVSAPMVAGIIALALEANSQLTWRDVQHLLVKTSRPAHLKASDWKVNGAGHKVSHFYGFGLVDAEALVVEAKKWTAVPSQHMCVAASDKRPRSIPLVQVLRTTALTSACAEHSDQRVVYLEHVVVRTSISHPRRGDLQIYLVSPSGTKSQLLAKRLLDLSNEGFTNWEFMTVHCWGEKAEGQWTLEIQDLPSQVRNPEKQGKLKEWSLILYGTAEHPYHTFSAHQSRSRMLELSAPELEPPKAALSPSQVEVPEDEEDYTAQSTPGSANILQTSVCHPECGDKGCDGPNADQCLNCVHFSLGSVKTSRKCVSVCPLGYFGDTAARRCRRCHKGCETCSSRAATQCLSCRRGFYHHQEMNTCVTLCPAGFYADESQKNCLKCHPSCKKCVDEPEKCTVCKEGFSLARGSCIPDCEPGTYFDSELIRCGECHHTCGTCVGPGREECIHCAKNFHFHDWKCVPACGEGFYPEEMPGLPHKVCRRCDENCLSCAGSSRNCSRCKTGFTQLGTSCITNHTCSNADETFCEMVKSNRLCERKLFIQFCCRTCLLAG
Excerpt: (§3) The first major distinction observed was the lack of secretion of PACE4-altCT accompanied with intracellular retention when compared to PACE4-FL which was efficiently secreted in the medium (FIGS. 7B and C). This observation correlated with the distinct cell distribution observed for each isoforms in IHC, i.e. the PACE4-FL being more accumulated at the membrane/extracellular surface compared to PACE4-altCT being restricted to the vesicular intracellular compartment (FIG. 3D). PACE4, at least PACE4-FL, is known to be secreted in the medium and to be retained in the extracellular matrix through the binding to heparan sulfate proteoglycans by its cysteine-rich domain and to be displaceable by heparin.
(§4) For PACE4 secretion assays, cells were plated at equal densities in 6-well plates for 24 h in complete medium. 24 h later, the medium was replaced by the minimal volume required of fresh culture medium (600 μL without FBS) and the cells were either allowed to secrete for the indicated time (for secretion kinetics) or (for inhibitor treatments) allowed to secrete for an additional 24 h in the presence of the indicated concentrations of agents (heparin (Sandoz, Niirnberg, Germany), 2-bromopalmitate (Sigma Aldrich), FTI-277 (Sigma Aldrich), GGTI-2133 (Santa Cruz Biotechnology Inc., Santa Cruz, Calif., USA)

PACE4-altCT = biological target: T2, PACE4-altCT (Homo sapiens, UniProt P29122); assay: PACE4 secretion assay, displacement by heparin; details: increasing doses
T2 construct: V5 (C); His (C); expressed in transfected cells
T2 sequence (P29122 with tags, fused parts or gaps limits assumed): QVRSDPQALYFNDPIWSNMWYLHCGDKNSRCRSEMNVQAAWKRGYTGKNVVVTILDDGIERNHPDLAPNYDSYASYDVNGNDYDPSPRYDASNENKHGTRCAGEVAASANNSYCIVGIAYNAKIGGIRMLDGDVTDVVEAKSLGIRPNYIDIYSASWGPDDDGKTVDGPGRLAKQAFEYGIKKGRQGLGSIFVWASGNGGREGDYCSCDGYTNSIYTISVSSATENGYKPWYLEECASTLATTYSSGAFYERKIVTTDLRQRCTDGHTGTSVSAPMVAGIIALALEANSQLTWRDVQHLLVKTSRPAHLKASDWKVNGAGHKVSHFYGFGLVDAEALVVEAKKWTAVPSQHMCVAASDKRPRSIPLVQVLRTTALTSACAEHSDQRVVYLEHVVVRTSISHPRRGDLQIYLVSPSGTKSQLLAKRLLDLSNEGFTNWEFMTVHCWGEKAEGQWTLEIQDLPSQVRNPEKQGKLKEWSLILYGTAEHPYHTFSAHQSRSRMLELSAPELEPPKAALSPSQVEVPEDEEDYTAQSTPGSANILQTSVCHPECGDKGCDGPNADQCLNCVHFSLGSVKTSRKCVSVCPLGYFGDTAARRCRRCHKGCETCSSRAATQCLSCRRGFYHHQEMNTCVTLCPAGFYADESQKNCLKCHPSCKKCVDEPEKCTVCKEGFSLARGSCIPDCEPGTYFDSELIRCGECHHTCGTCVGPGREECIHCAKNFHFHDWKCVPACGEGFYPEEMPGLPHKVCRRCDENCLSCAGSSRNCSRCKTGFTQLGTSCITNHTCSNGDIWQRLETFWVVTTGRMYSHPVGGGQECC
Excerpt: as §3, §4

| Compound | change of splicing index (DU145 cells) | change of splicing index (LNCaP cells) | CpG hypomethylation [1] | CTCF ChIP enrichment of intra-exonic and upstream region [2] | displacement into the medium by heparin (PACE4-FL) | displacement into the medium by heparin (PACE4-altCT) |
| --- | --- | --- | --- | --- | --- | --- |
| Nc1ncn([C@H]2C[C@H](O)[C@@H](CO)O2)c(=O)n1 [decitabine, 5-aza-2′-deoxycytidine] | increased in a dose-dependent manner | increased in a dose-dependent manner | sensitive to decitabine in a dose-dependent manner | clear enrichment | – | – |
| heparin | – | – | – | – | increased amount in the medium | could not be displaced |
